Tests used:
[1] = system: ID211 patient-derived PDAC 2D line (post-FOLFIRINOX); experiment: normalised area under dose-response curve (viability relative to DMSO, 7 doses up to 10 µM) (fraction (AUC)); higher = less sensitive (more viability retained); conditions: 72 h; top dose: 10 µM
Protocol: (§1)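 Patient-derived 2D PDAC cells (ID188 pre-FOLFIRINOX, passage 5+27; ID211 post-FOLFIRINOX, passage 9+11), 1,500-3,000 cells/well in 96-well plates, were treated with a 415-compound Selleck library in seven concentrations (3-fold dilution series, top 10 µM) for 72 h. Viability was read by CellTiter-Glo ATP luminescence, normalised to the DMSO control, and the area under the dose-response curve was computed with the GRmetrics R package; a lower AUC means higher sensitivity.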

[2] = system: ID188 patient-derived PDAC 2D line (pre-FOLFIRINOX); experiment: as above; conditions: 72 h; top dose: 10 µM
Protocol: as §1

SMILES | normalised area under dose-response curve [1] | normalised area under dose-response curve [2]
C/C(=N\NC(=S)N1CCC1)c1ccccn1 | 0.138 | 0.366
C=CC(=O)N1CCC[C@@H](n2nc(-c3ccc(Oc4ccccc4)cc3)c3c(N)ncnc32)C1 | 0.71 | 0.794
C=CC(=O)Nc1cccc(Oc2nc(Nc3ccc(N4CCN(C)CC4)cc3)nc3ccsc23)c1 | 0.75 | 0.921
CC(=O)N1c2ccc(-c3ccc(C(=O)O)cc3)cc2[C@H](Nc2ccc(Cl)cc2)C[C@@H]1C | 0.732 | 0.815
CC(=O)c1c(C)c2cnc(Nc3ccc(N4CCNCC4)cn3)nc2n(C2CCCC2)c1=O | 0.865 | 0.882
CC(=O)c1cc([N+](=O)[O-])c(Sc2ccc(F)cc2F)s1 | 0.966 | 0.93
CC(=O)c1cc([N+](=O)[O-])c(Sc2cccc(Cl)c2Cl)s1 | 0.848 | 0.98
CC(C)(C#N)c1ccc(N2C(=O)OCc3cnc4ccc(-c5cnc6ccccc6c5)cc4c32)cc1 | 0.804 | 0.825
CC(C)(C)c1nc(-c2cccc(NS(=O)(=O)c3c(F)cccc3F)c2F)c(-c2ccnc(N)n2)s1 | 0.932 | 0.738
CC(C)N(CCCNC(=O)Nc1ccc(C(C)(C)C)cc1)C[C@H]1O[C@@H](n2ccc3c(N)ncnc32)[C@H](O)[C@@H]1O | 0.899 | 0.952
CC(C)Oc1ccc(C(=O)N[C@H](CNC(=O)CN(C)C)Cc2ccc(-c3cn4cccc([C@H](C)O)c4n3)cc2)cc1Cl | 0.709 | 0.64
CC(C)c1cc(C(=O)N2Cc3ccc(CN4CCN(C)CC4)cc3C2)c(O)cc1O | 0.458 | 0.665
CCC(CC)CC1(C(=O)Nc2ccccc2SC(=O)C(C)C)CCCCC1 | 0.859 | 0.929
CCc1cc(Nc2nccc(-c3c(-c4ccc(OC)c(C(=O)Nc5c(F)cccc5F)c4)nc4ccccn34)n2)c(OC)cc1N1CCC(N2CCN(S(C)(=O)=O)CC2)CC1 | 0.829 | 0.94
CCc1cnn2c(NCc3ccc[n+]([O-])c3)cc(N3CCCC[C@H]3CCO)nc12 | 0.161 | 0.426
CCn1c(-c2nonc2N)nc2c(C#CC(C)(C)O)ncc(OC[C@H]3CCCNC3)c21 | 0.836 | 0.83
CN(c1ncccc1CNc1nc(Nc2ccc3c(c2)CC(=O)N3)ncc1C(F)(F)F)S(C)(=O)=O | 0.795 | 0.89
CN1CCN(C(=O)/C=C/c2ccc([N+](=O)[O-])o2)CC1 | 0.937 | 0.954
CN1CCN(c2ccc(Nc3ncc4cc(C#N)c(=O)n(C5CCCC5)c4n3)cc2)CC1 | 0.852 | 0.98
CNC(=O)c1ccc(Nc2ncc(C(F)(F)F)c(NCc3nccnc3N(C)S(C)(=O)=O)n2)cc1 | 0.761 | 0.897
CNC(=O)c1nn(C)c2c1C(C)(C)Cc1cnc(Nc3ccc(N4CCN(C)CC4)cc3)nc1-2 | 0.783 | 0.776
CNCCN(C)Cc1c[nH]nc1-c1ccc(O[C@H]2C[C@H](OCCC3CCOCC3)C2)cc1 | 0.92 | 0.779
CNc1nc(-c2ccc3c(N)n[nH]c3c2)cc(N2C[C@@H](C(=O)NC3CCCCC3)CC[C@H]2C)n1 | 0.71 | 0.869
CONC(=O)c1ccccc1Nc1cc(Nc2cc(C)nn2C(C)C)ncc1Cl | 0.844 | 0.812
CO[C@@H](C(=O)N1Cc2[nH]nc(NC(=O)c3ccc(N4CCN(C)CC4)cc3)c2C1)c1ccccc1 | 0.611 | 0.766
COc1cc(OC)cc(N(CCNC(C)C)c2ccc3ncc(-c4cnn(C)c4)nc3c2)c1 | 0.893 | 0.927
COc1cc2c(cc1OC)CN(CCc1ccc(NC(=O)c3cccc4c(=O)c5cccc(OC)c5[nH]c34)cc1)CC2 | 0.682 | 1.02
COc1ccc(-c2ccc3c(N4CCOCC4)nc(N4C[C@@H](C)O[C@@H](C)C4)nc3n2)cc1CO | 0.831 | 0.825

SMILES | normalised area under dose-response curve [1] | normalised area under dose-response curve [2]
CS(=O)(=O)CCNCc1ccc(-c2ccc3ncnc(Nc4ccc(OCc5cccc(F)c5)c(Cl)c4)c3c2)o1 | 0.614 | 0.924
C[C@@H](Oc1cc(-c2cnn(C3CCNCC3)c2)cnc1N)c1c(Cl)ccc(F)c1Cl | 0.799 | 0.772
C[C@@H](Oc1cc(-n2cnc3ccc(CN4CCN(C)CC4)cc32)sc1C(N)=O)c1ccccc1C(F)(F)F | 0.726 | 0.687
C[C@@H]1CN(CC(=O)Nc2ccc3c(c2)Cc2cccc(-c4cc(=O)cc(N5CCOCC5)o4)c2S3)C[C@H](C)O1 | 0.842 | 0.936
C[C@H](NC(=O)CCC(F)(F)F)C(=O)N[C@@H]1C(=O)N(CCO)c2ncccc2-c2ccccc21 | 0.744 | 0.939
C[C@H](NC(=O)Cc1cc(F)cc(F)c1)C(=O)N[C@@H]1C(=O)N(C)c2ccccc2-c2ccccc21 | 0.782 | 0.89
Cc1cc(C)c(CNC(=O)c2cc(-c3ccc(CN4CCOCC4)cc3)cc3c2cnn3C2CCCC2)c(=O)[nH]1 | 0.812 | 0.896
Cc1ccc(C(=O)N(CCCN)[C@@H](c2nc3cc(Cl)ccc3c(=O)n2Cc2ccccc2)C(C)C)cc1 | 0.697 | 0.5
Cc1ccc2nc(CN(CCN(Cc3nc4ccc(C)cc4[nH]3)Cc3nc4ccc(C)cc4[nH]3)Cc3nc4ccc(C)cc4[nH]3)[nH]c2c1 | 0.676 | 1.03
Cc1cccc(-c2nn3c(c2-c2ccnc4ccc(C(N)=O)cc24)CCC3)n1 | 0.965 | 0.968
Cc1cccc(CC(=O)N2CCc3c2ccc(-c2cn(C)c4ncnc(N)c24)c3F)n1 | 0.959 | 0.87
Cc1nc(Nc2n[nH]c3c2CN(C(=O)N[C@H](CN(C)C)c2ccccc2)C3(C)C)c2sccc2n1 | 0.551 | 0.578
Cc1ncc(Cl)cc1NCc1ccc(C(=O)N[C@@H](CC2CCCC2)C(=O)NC2CC2)s1 | 0.865 | 0.923
Cn1cc(-c2ccc3c(c2)CCN3C(=O)Cc2cccc(C(F)(F)F)c2)c2c(N)ncnc21 | 0.852 | 0.915
Cn1cc(-c2cnn3c(N)c(Br)c([C@@H]4CCCNC4)nc23)cn1 | 0.9 | 0.873
Cn1cc(/C=C2\C(=O)Nc3cccnc32)c2ccccc21 | 0.914 | 0.94
Cn1cc(C2=C(c3cn(C4CCN(Cc5ccccn5)CC4)c4ccccc34)C(=O)NC2=O)c2ccccc21 | 0.933 | 0.917
NS(=O)(=O)NCCNc1nonc1/C(=N/O)Nc1ccc(F)c(Br)c1 | 0.909 | 0.924
Nc1[nH]nc2nnc(-c3c(-c4ccccc4)nn4ccccc34)cc12 | 0.849 | 0.847
O=C(O)c1ccc(-c2c[nH]c3ncc(-c4ccccc4)cc23)cc1C1CCCC1 | 0.913 | 0.924
O=C(c1cc(Cc2n[nH]c(=O)c3ccccc23)ccc1F)N1CCN(C(=O)C2CC2)CC1 | 0.865 | 0.917
O=C1NC(=O)C(c2cnc3ccccn23)=C1c1cn2c3c(cc(F)cc13)CN(C(=O)N1CCCCC1)CC2 | 0.259 | 1.04
O=S(=O)(O)c1ccc2cc(N=Nc3cc(S(=O)(=O)O)c4cccnc4c3O)ccc2c1 | 0.831 | 0.938
O=c1cc(-c2cccc3c2Sc2ccccc2S3)oc(N2CCOCC2)c1 | 0.834 | 0.945
O=c1cc(N2CCOCC2)oc2c(-c3cccc4c3sc3ccccc34)cccc12 | 0.878 | 0.991
c1ccc(-c2nn3c(c2-c2ccnc4cc(OCCN5CCOCC5)ccc24)CCC3)nc1 | 0.861 | 0.974
c1ccc2c(CCNc3ccc(Nc4ccncc4)cc3)c[nH]c2c1 | 0.796 | 0.88
